Measured values reported in patent publication US10932465B2, “Antimicrobial mixture containing 4-(3-ethoxy-4-hydroxyphenyl)butan-2-one and a diol, and cosmetic composition containing same” (L'OREAL, priority 2017, dated 2021).
Structures can show the parent of a compound that is named as a salt. Blank lines part the entries; values can stand above or below the compound they belong to.

Assays:
[1] = system: Candida albicans ATCC 10231; test: MIC / microbial growth test, 96-well microplate, optical density at 620 nm, with FIC index; assay type: cell-based
Description: (§1) FIC Index=([…]) with: • MICa with B: minimum concentration of product A in the combination A+B which makes it possible to obtain an inhibitory effect • MICb with A: minimum concentration of product B in the combination A+B which makes it possible to obtain an inhibitory effect. • MICa: minimum inhibitory concentration of product A alone. • MICb: minimum inhibitory concentration of product B alone. […] As regards the combinations tested, MICa with b and MICb with a are the respective concentrations of A and of B in the combinations which make it possible to obtain a microbial growth percentage of less than or equal to 25%. When the FIC index value is less than or equal to 1, it is considered that the combination of test compounds has a synergistic effect. The combinations of compounds A and B were tested on the following strains: Aspergillus niger and Candida albicans. […] A 96-well microplate and an incubation temperature of 32.5° C. are used. The incubation time of the microplate is: • from 24 hours to 48 hours aerobically for Aspergillus niger, • from 18 hours to 24 hours aerobically for Candida albicans. A 10% (weight/volume) stock solution was prepared by mixing 1 g of compound in 9 ml of aqueous 1%o agar solution. […] 50 μL of each of the daughter solutions obtained containing compound A or B1 or B2 are added to the microplate wells. 100 μL of Sabouraud liquid nutrient broth seeded with the strain Aspergillus niger and 50 μL of aqueous 1%o agar solution are also added thereto. 50 μL of each of the daughter solutions obtained containing compound A and 50 μL of each of the daughter solutions obtained containing compound B1 or B2 are added to the microplate wells. 100 μL of Sabouraud liquid nutrient broth seeded at double concentration with the strain Aspergillus niger are also added thereto. A positive microbial growth control was also prepared. […] This control corresponds to 100 μL of double concentration sterile Sabouraud liquid nutrient broth+100 μL of double concentration compound A or B1 or B2.

[2] = system: Aspergillus niger ATCC 6275; test: as above; assay type: cell-based
Description: as §1, with “B2. […] In the two cases (test and control), the inoculum represents the concentration of the strain Aspergillus niger present in the final volume of the wells (200 μL) and is between 2 and 6×10^5 cfu/ml of Aspergillus niger.” for “B2.”

[3] = Candida albicans, growth <= 25%
[4] = Aspergillus niger, growth <= 25%

% MIC of A alone ([1]; Candida albicans, series with B1, growth <= 25%): 0.1% | % MIC of A alone ([2]; Aspergillus niger, series with B1, growth <= 25%): 0.25% | % MIC of A alone ([2]; Aspergillus niger, series with B2, growth <= 25%): 0.4% | % MIC of A alone ([2]; Aspergillus niger, series with B3, growth <= 25%): 0.25%
SMILES: CCOc1cc(CCC(C)=O)ccc1O [A, 4-(3-ethoxy-4-hydroxyphenyl)butan-2-one]
microbial growth percentage ([1]; 0.025 A + 0 B1 (weight %)): 63% | microbial growth percentage ([1]; 0.025 A + 0 B2 (weight %)): 83% | microbial growth percentage ([1]; 0.05 A + 0 B1 (weight %)): 47% | microbial growth percentage ([1]; 0.05 A + 0 B2 (weight %)): 70% | microbial growth percentage ([1]; 0.1 A + 0 B1 (weight %)): 22% | microbial growth percentage ([1]; 0.1 A + 0 B2 (weight %)): 50% | microbial growth percentage ([1]; 0.2 A + 0 B2 (weight %)): 10% | microbial growth percentage ([2]; 0.025 A + 0 B2 (weight %)): 228% | microbial growth percentage ([2]; 0.05 A + 0 B2 (weight %)): 109% | microbial growth percentage ([2]; 0.0625 A + 0 B1 (weight %)): 83% | microbial growth percentage ([2]; 0.0625 A + 0 B3 (weight %)): 85% | microbial growth percentage ([2]; 0.1 A + 0 B2 (weight %)): 73% | microbial growth percentage ([2]; 0.125 A + 0 B1 (weight %)): 49% | microbial growth percentage ([2]; 0.125 A + 0 B3 (weight %)): 48% | microbial growth percentage ([2]; 0.2 A + 0 B2 (weight %)): 72% | microbial growth percentage ([2]; 0.25 A + 0 B1 (weight %)): 5% | microbial growth percentage ([2]; 0.25 A + 0 B3 (weight %)): 7% | microbial growth percentage ([2]; 0.4 A + 0 B2 (weight %)): 6%

% MIC of B1 alone [1, 3]: 0.001% | % MIC of B1 alone [2, 4]: 0.01%
SMILES: N=C(NCCCCCCNC(=N)NC(=N)Nc1ccc(Cl)cc1)NC(=N)Nc1ccc(Cl)cc1.O=C(O)[C@H](O)[C@@H](O)[C@H](O)[C@H](O)CO.O=C(O)[C@H](O)[C@@H](O)[C@H](O)[C@H](O)CO [B1, chlorhexidine digluconate, reference compound]
microbial growth percentage ([1]; 0 A + 0.00025 B1 (weight %)): 59% | microbial growth percentage ([1]; 0 A + 0.0005 B1 (weight %)): 32% | microbial growth percentage ([1]; 0 A + 0.001 B1 (weight %)): 3% | microbial growth percentage ([2]; 0 A + 0.0025 B1 (weight %)): 98% | microbial growth percentage ([2]; 0 A + 0.005 B1 (weight %)): 98% | microbial growth percentage ([2]; 0 A + 0.01 B1 (weight %)): 7%

% MIC of B2 alone [1, 3]: 0.001% | % MIC of B2 alone [2, 4]: 0.02%
SMILES: [H]/N=C(\N/C(=N/[H])NCCCCCCNC(=N)NC(=N)Nc1ccc(Cl)cc1)Nc1ccc(Cl)cc1 [B2, chlorhexidine hydrochloride, reference compound]
microbial growth percentage ([1]; 0 A + 0.00025 B2 (weight %)): 82% | microbial growth percentage ([1]; 0 A + 0.0005 B2 (weight %)): 64% | microbial growth percentage ([1]; 0 A + 0.001 B2 (weight %)): 14% | microbial growth percentage ([2]; 0 A + 0.025 B2 (weight %)): 194% | microbial growth percentage ([2]; 0 A + 0.05 B2 (weight %)): 121% | microbial growth percentage ([2]; 0 A + 0.1 B2 (weight %)): 137% | microbial growth percentage ([2]; 0 A + 0.2 B2 (weight %)): 2%
